# Laboratory results from the kinase profiling compilation of Christmann-Franck et al. (2016).
# Several values for one entry are separate records, joined by “and”; a condition that tells them apart may be missing. Equal values may be shown once.
# Tests used:
# Test in all cases: KINOMEscan competition binding
# Details in all cases: compound 0.1 µM
# ABL2 (human) = ABL2 (human) (UniProt P42684)
# AURKB (human) = AURKB (human) (UniProt Q96GD4)
# AXL (human) = AXL (human) (UniProt P30530)
# BMPR1A (human) = BMPR1A (human) (UniProt P36894)
# CDC42BPG (human) = CDC42BPG (human) (UniProt Q6DT37)
# CDK7 (human) = CDK7 (human) (UniProt P50613)
# CDKL1 (human) = CDKL1 (human) (UniProt Q00532)
# CDKL5 (human) = CDKL5 (human) (UniProt O76039)
# DCLK3 (human) = DCLK3 (human) (UniProt Q9C098)
# [1] = tested on: EGFR (human), P00533 [G719S]
# EPHA2 (human) = EPHA2 (human) (UniProt P29317)
# ERBB4 (human) = ERBB4 (human) (UniProt Q15303)
# [2] = tested on: FGFR3 (human), P22607 [G697C]
# FLT3 (human) = FLT3 (human) (UniProt P36888)
# [3] = tested on: FLT3 (human), P36888 [D835H]
# FYN (human) = FYN (human) (UniProt P06241)
# GAK (human) = GAK (human) (UniProt O14976)
# IKBKE (human) = IKBKE (human) (UniProt Q14164)
# IRAK4 (human) = IRAK4 (human) (UniProt Q9NWZ3)
# [4] = target: JAK1 JH1 catalytic (human) (UniProt P23458)
# [5] = tested on: KIT (human), P10721 [V559D/V654A]
# LATS2 (human) = LATS2 (human) (UniProt Q9NRM7)
# MAP3K1 (human) = MAP3K1 (human) (UniProt Q13233)
# MAP3K11 (human) = MAP3K11 (human) (UniProt Q16584)
# MAP3K14 (human) = MAP3K14 (human) (UniProt Q99558)
# MAP3K15 (human) = MAP3K15 (human) (UniProt Q6ZN16)
# MAPK6 (human) = MAPK6 (human) (UniProt Q16659)
# MAPKAPK2 (human) = MAPKAPK2 (human) (UniProt P49137)
# MYLK4 (human) = MYLK4 (human) (UniProt Q86YV6)
# NEK10 (human) = NEK10 (human) (UniProt Q6ZWH5)
# NEK11 (human) = NEK11 (human) (UniProt Q8NG66)
# PAK1 (human) = PAK1 (human) (UniProt Q13153)
# PLK1 (human) = PLK1 (human) (UniProt P53350)
# PRKX (human) = PRKX (human) (UniProt P51817)
# RIPK1 (human) = RIPK1 (human) (UniProt Q13546)
# ROCK1 (human) = ROCK1 (human) (UniProt Q13464)
# RPS6KA3 KD1 (human) = RPS6KA3 KD1 (human) (UniProt P51812)
# SRMS (human) = SRMS (human) (UniProt Q9H3Y6)
# TGFBR1 (human) = TGFBR1 (human) (UniProt P36897)
# [6] = target: TYK2 JH1 catalytic (human) (UniProt P29597)
# ROCK1 (human), sequence (Q13464 whole entry, looked up): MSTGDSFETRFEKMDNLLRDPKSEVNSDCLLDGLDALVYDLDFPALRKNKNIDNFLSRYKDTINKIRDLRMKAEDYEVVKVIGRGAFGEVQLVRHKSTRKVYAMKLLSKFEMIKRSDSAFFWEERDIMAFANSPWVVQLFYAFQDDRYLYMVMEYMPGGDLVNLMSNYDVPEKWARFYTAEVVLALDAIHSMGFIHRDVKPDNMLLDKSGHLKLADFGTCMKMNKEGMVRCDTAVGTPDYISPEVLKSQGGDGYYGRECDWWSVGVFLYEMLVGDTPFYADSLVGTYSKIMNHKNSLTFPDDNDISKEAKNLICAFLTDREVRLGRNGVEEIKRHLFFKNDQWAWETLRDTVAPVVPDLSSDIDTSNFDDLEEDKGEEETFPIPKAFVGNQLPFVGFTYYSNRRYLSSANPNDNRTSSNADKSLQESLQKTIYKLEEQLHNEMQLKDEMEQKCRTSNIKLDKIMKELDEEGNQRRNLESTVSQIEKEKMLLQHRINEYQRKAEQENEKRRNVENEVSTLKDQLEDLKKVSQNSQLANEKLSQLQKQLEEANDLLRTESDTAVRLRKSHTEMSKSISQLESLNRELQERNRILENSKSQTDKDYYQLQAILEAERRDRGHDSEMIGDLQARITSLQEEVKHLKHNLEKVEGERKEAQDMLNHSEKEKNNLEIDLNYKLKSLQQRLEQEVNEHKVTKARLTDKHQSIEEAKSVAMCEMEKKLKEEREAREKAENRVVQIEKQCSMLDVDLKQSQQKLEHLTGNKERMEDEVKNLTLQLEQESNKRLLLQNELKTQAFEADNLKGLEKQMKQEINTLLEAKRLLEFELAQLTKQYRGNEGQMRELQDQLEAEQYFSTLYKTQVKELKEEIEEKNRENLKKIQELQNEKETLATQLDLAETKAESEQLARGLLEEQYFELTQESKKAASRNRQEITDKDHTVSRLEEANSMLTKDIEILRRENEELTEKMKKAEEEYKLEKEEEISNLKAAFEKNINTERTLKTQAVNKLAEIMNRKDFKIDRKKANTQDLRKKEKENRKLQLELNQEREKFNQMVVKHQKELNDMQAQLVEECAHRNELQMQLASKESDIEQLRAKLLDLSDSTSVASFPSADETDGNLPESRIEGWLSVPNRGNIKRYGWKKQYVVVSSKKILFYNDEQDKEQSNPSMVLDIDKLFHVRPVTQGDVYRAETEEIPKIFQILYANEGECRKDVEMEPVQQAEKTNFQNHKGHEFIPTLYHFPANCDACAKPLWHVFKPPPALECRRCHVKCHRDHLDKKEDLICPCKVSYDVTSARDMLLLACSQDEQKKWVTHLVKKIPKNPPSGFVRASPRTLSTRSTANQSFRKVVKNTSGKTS
# JAK1 JH1 catalytic (human), sequence (P23458 whole entry, looked up): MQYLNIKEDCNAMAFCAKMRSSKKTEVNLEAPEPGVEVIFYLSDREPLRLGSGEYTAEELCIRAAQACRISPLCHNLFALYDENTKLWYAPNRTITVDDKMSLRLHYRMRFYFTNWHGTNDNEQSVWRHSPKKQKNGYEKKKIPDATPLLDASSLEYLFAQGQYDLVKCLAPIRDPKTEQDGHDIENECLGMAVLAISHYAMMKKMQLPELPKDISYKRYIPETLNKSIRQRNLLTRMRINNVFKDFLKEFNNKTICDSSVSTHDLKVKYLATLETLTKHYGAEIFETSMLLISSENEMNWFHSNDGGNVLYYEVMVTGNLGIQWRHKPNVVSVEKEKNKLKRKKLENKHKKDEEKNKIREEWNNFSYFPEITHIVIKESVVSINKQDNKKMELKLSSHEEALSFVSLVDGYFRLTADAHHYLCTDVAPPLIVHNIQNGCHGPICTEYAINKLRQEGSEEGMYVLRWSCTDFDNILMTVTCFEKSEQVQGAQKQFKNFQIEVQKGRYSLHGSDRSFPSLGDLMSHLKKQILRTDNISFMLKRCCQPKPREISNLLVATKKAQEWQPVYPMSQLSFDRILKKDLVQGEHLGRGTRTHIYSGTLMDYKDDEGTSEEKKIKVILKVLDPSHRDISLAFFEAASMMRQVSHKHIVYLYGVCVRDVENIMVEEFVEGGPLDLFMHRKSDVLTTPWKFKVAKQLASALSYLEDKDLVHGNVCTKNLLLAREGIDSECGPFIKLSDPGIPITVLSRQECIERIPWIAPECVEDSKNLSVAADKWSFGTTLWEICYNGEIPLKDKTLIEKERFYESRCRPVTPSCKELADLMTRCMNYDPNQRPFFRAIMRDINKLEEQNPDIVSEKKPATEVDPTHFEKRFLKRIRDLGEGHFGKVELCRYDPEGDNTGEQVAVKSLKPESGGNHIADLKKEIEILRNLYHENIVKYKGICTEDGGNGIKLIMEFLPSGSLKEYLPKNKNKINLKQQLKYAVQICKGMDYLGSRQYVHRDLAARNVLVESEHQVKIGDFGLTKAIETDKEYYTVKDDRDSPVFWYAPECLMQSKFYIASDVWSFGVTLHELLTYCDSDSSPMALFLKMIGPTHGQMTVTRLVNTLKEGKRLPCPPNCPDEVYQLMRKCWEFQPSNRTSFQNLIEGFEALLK
# EPHA2 (human), sequence (P29317 whole entry, looked up): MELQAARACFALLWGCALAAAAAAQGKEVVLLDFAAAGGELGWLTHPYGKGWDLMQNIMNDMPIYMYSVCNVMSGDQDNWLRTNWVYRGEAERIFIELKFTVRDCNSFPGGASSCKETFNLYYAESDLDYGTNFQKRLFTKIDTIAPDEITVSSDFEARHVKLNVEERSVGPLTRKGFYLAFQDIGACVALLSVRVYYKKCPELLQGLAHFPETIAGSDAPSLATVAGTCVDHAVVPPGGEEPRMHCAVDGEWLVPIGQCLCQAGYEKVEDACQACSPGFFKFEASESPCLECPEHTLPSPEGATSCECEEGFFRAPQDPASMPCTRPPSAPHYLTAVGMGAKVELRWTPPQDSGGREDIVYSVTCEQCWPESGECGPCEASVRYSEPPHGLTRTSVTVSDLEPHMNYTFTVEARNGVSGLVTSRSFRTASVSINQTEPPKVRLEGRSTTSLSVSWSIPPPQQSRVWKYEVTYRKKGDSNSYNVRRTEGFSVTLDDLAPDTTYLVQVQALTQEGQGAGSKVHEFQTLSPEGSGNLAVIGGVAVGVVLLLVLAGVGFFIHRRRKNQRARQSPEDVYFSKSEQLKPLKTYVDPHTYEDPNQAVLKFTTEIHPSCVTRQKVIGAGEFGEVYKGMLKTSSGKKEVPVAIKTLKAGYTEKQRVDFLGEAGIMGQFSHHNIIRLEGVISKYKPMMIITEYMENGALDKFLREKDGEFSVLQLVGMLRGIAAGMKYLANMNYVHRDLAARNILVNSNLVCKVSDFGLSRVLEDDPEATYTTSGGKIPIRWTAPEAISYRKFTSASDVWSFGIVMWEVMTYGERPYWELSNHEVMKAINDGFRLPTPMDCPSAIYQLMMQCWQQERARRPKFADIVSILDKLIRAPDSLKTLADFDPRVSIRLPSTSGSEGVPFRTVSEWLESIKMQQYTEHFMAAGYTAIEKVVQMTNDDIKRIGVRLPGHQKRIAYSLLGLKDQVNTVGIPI
# RPS6KA3 KD1 (human), sequence (P51812 whole entry, looked up): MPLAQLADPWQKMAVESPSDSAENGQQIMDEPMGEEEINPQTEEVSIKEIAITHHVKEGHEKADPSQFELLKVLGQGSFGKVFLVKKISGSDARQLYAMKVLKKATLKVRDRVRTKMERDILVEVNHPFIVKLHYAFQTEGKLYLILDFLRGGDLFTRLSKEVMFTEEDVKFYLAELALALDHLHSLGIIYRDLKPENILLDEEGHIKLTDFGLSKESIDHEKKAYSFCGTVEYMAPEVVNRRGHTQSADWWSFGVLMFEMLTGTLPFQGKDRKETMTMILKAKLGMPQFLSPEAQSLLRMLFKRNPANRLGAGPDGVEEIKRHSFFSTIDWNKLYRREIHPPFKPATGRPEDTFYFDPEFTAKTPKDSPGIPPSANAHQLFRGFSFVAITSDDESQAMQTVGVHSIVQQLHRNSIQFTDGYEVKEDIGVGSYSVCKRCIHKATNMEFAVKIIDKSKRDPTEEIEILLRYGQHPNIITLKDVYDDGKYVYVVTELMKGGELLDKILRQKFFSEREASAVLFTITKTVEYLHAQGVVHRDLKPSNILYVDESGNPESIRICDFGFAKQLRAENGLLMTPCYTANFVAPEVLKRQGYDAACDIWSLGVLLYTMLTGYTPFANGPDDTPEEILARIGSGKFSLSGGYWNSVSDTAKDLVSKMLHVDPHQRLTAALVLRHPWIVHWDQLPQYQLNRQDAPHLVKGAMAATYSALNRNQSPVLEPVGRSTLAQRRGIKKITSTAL
# CDK7 (human), sequence (P50613 whole entry, looked up): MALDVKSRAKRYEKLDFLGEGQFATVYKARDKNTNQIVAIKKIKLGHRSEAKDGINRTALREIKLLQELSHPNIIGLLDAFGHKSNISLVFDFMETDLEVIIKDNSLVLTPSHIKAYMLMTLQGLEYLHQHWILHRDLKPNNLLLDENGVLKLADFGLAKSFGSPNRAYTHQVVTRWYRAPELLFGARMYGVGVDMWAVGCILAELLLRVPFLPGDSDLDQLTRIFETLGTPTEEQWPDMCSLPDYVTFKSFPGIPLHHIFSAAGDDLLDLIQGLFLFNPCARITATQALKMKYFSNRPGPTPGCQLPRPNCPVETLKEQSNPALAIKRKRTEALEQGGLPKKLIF
# CDKL1 (human), sequence (Q00532 whole entry, looked up): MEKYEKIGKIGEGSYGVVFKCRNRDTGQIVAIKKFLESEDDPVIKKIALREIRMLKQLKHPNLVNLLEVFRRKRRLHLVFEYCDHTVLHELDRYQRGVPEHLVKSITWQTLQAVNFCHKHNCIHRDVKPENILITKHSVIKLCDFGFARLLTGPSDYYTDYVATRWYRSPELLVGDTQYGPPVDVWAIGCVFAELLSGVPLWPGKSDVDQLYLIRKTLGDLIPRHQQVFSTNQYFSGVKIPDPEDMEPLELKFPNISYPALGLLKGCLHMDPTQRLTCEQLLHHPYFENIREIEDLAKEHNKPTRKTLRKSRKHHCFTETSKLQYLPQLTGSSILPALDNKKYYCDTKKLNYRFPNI
smiles,measurement,setting,value
CCc1ccc(C(=O)Nc2cc(CN3CCN(C)CC3)cc(C(F)(F)F)c2)cc1C#Cc1cnc2ccnn2c1,"kinase still bound, per cent of control",ABL2 (human),39%
same,"kinase still bound, per cent of control",AURKB (human),100%
same,"kinase still bound, per cent of control",AXL (human),100%
same,"kinase still bound, per cent of control",BMPR1A (human),100%
same,"kinase still bound, per cent of control",CDC42BPG (human),100%
same,"kinase still bound, per cent of control",CDK7 (human),100%
same,"kinase still bound, per cent of control",CDKL1 (human),100%
same,"kinase still bound, per cent of control",CDKL5 (human),100%
same,"kinase still bound, per cent of control",DCLK3 (human),100%
same,"kinase still bound, per cent of control",[1],100%
same,"kinase still bound, per cent of control",EPHA2 (human),80%
same,"kinase still bound, per cent of control",ERBB4 (human),100%
same,"kinase still bound, per cent of control",[2],90%
same,"kinase still bound, per cent of control",FLT3 (human),78% and 100%
same,"kinase still bound, per cent of control",[3],83%
same,"kinase still bound, per cent of control",FYN (human),72%
same,"kinase still bound, per cent of control",GAK (human),95%
same,"kinase still bound, per cent of control",IKBKE (human),100%
same,"kinase still bound, per cent of control",IRAK4 (human),100%
same,"kinase still bound, per cent of control",[4],100%
same,"kinase still bound, per cent of control",[5],100%
same,"kinase still bound, per cent of control",LATS2 (human),100%
same,"kinase still bound, per cent of control",MAP3K1 (human),100%
same,"kinase still bound, per cent of control",MAP3K11 (human),83%
same,"kinase still bound, per cent of control",MAP3K14 (human),85%
same,"kinase still bound, per cent of control",MAP3K15 (human),100%
same,"kinase still bound, per cent of control",MAPK6 (human),98%
same,"kinase still bound, per cent of control",MAPKAPK2 (human),100%
same,"kinase still bound, per cent of control",MYLK4 (human),93%
same,"kinase still bound, per cent of control",NEK10 (human),100%
same,"kinase still bound, per cent of control",NEK11 (human),91%
same,"kinase still bound, per cent of control",PAK1 (human),75%
same,"kinase still bound, per cent of control",PLK1 (human),80%
same,"kinase still bound, per cent of control",PRKX (human),100%
same,"kinase still bound, per cent of control",RIPK1 (human),100%
same,"kinase still bound, per cent of control",ROCK1 (human),83%
same,"kinase still bound, per cent of control",RPS6KA3 KD1 (human),100%
same,"kinase still bound, per cent of control",SRMS (human),99%
same,"kinase still bound, per cent of control",TGFBR1 (human),100%
same,"kinase still bound, per cent of control",[6],100%
